Read-outs that look alike come from different tables or passages of the source.
Key:
Hcy fibrils [1] = experiment: TEM of pre-formed solutions of Hcy with polyphenols; conditions: Hcy 2 mg/mL + 1 mM EGCG or 0.1 mM TA
Experimental: Hcy was dissolved at 90° C. in PBS at various concentrations followed by gradual cooling of the solution. Where indicated, EGCG or TA (final concentration of 1 mM and 0.1 mM, respectively) were added before gradual cooling. Subsequently, 10 μL samples were placed on 400-mesh copper grids. After 2 min, excess fluids were removed. Samples were viewed using a JEOL 1200EX electron microscope operating at 80 kV.

Hcy fibrils [2] = experiment: ThT binding assay, inhibition of Hcy self-assembly by polyphenols; format: biochemical; conditions: 1 mM EGCG or 0.1 mM TA added at timepoint zero; Hcy in PBS; emission 480 nm, excitation 440 nm
Experimental: Hcy was dissolved at 90° C. in PBS to a final concentration of 10, 5 and 2 mg/mL and maintained at 90° C. until the beginning of the measurement. Samples containing polyphenols were immediately mixed with the inhibitors. EGCG or TA (final concentration of 1 mM and 0.1 mM, respectively). As a control, Hcy was diluted with PBS alone to the same final concentrations. ThT in PBS was added to a final concentration of 20 μM for 5 and 10 mg/ml Hcy or 40 μM for 2 mg/ml Hcy. Next, the solutions were plated in a black 96-well, clear, and flat bottom microplate (Greiner) and self-assembly kinetics were recorded over time at room temperature (uncontrolled gradual cooling of the solutions) with short shaking before each read. ThT emission data at 480 nm (excitation at 440 nm), were measured using a Tecan™ SPARK 10 M plate reader, gain of 100 for 2 mg/ml, and using a Tecan™ Infinite 200 PRO plate reader, gain of 90 for 5 and 10 mg/ml.

SH-SY5Y cells [3] = experiment: MTT cell viability assay, SH-SY5Y cells; format: cell-based, human; conditions: for Cell viability with inhibitor-containing Hcy solution compared to Hcy alone (MTT): Hcy 2 mg/mL with EGCG 0.1 mM or TA 0.01 mM
Experimental: SH-SY5Y cells (ATCC CRL-2266) or HEK293 cells (ATCC® CRL-1573) were cultured (2×10^5 cells/mL) in DMEM/Nutrient Mixture F12 (Ham's; 1:1) supplemented with 10% fetal bovine serum (FBS) in 96-well tissue microplates (100 μL per well) and allowed to adhere overnight at 37° C. Half of each plate was plated with cells, with the other half later serving as a control containing solutions alone. The treatment solutions were prepared as follows: Hcy or methionine were dissolved at 90° C. and at various concentrations in cell media without FBS, followed by gradual cooling of the solutions. For solutions containing polyphenols, Hcy (final concentration of 2 mg/mL) was similarly dissolved in cell media and mixed with EGCG or TA (final concentration of 0.1 mM and 0.01 mM, respectively, stock solution dissolved in cell medium) before gradual cooling. The medium was replaced and cells were treated with the solutions (100 μL per well), followed by overnight incubation at 37° C. Control cells were incubated with medium that was treated in the same manner (without Hcy). Controls of media supplemented with the inhibitors, without Hcy, were examined as well. Cell viability was evaluated using the 3-(4,5-dimethylthiazolyl-2)-2,5-diphenyltetrazolium bromide (MTT) assay. Briefly, 10 μL of 5 mg/mL MTT dissolved in PBS was added to each well. After a 4 hours incubation at 37° C. 100 μL of extraction buffer […] dissolved in a mixture of 50% DMF and 50% DDW (pH 4.7)] was added to each well, and the plates were further incubated at 37° C. for 30 min. Finally, color intensity was measured using an ELISA reader at 570 nm. Blank measurements of the solutions without cells were respectively subtracted. The data points are presented as mean±SD. For inhibitors and methionine controls, two-tailed Student's t test was performed when two groups were compared.

SH-SY5Y cells [4] = experiment: Annexin V and propidium iodide apoptosis assay (flow cytometry); format: cell-based, human
Experimental: SH-SY5Y cells were cultured at 2×10^5 cells/mL in 24-well plates in DMEM/Nutrient Mixture F12 (Ham's; 1:1) supplemented with 10% FBS and were allowed to adhere overnight at 37° C. The treatment solutions containing Hcy and methionine were prepared as described above for the MTT assay. Cells were treated with the solutions followed by overnight incubation at 37° C. Control cells were incubated with medium that was treated in the same manner without Hcy. The apoptotic effect was evaluated using the MEBCYTO Apoptosis kit (MBL International), according to the manufacturer's instructions. Briefly, the adherent cells were trypsinized, detached and combined with floating cells from the incubated growth medium. Cells were then centrifuged and washed once with PBS and once with binding buffer. Cells were subsequently incubated with annexin V-FITC and PI for 15 min in the dark, resuspended in 200 μL binding buffer and analyzed by flow cytometry using a single laser-emitting excitation light at 488 nm. Data from at least 10^4 cells were acquired using the BD FACSort and the CellQuest software (BD Biosciences). Analysis was performed using the FlowJo software (TreeStar, version 14).

[5] = ThT binding assay of metabolite self-assembly; format: physicochemical; conditions: emission 480 nm
Experimental: Hcy was dissolved at 90° C. in PBS to a final concentration of 10, 5 and 2 mg/mL and maintained at 90° C. until the beginning of the measurement. Samples containing polyphenols were immediately mixed with the inhibitors. […] As a control, Hcy was diluted with PBS alone to the same final concentrations. […] Next, the solutions were plated in a black 96-well, clear, and flat bottom microplate (Greiner) and self-assembly kinetics were recorded over time at room temperature (uncontrolled gradual cooling of the solutions) with short shaking before each read. […] Following an overnight incubation at room temperature with gentle rotation (uncontrolled gradual cooling of solutions), ThT emission signal at 480 nm (excitation at 450 nm) was measured at room temperature with short shaking before each read and using a Tecan™ Infinite 200 PRO plate reader, gain 90.

β-amyloid1-42 = target: T1, β-amyloid1-42 (Homo sapiens, UniProt P05067); experiment: In-vitro seeding of β-amyloid1-42 by Hcy assemblies (ThT binding assay); format: biochemical; conditions: 20% v/v pre-formed Hcy assemblies (2, 5, 10 mg/mL stocks), 3 μM β-amyloid1-42 monomers, 37° C.
T1 construct: purchased rPeptide
T1 sequence (P05067 672-713 limits assumed): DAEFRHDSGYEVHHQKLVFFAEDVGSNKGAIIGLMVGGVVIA
Experimental: Hcy was dissolved at 90° C. in PBS followed by gradual cooling of the solution. […] (rPeptide) was dissolved in DMSO to a concentration of 120 μM. The monomeric protein was mixed with pre-formed 20% v/v Hcy assemblies (taken from 10, 5 or 2 mg/mL stock solutions), or with an equivalent volume of PBS as a control, to a final concentration of 3 μM β-amyloid1-42 ThT was added to a final concentration of 20 μM. Aggregation was monitored using Tecan™ Infinite 200 PRO fluorescence plate reader over time at 37° C. Blank measurements of Hcy only (without β-amyloid) were respectively subtracted.

cys4Δ yeast strain [6] = format: cell-based, Saccharomyces cerevisiae
Experimental: The cys4 gene was disrupted in wild-type (WT) yeast strain (BY4741) via homologous recombination using PCR fragments amplified from the plasmid pFA6a-KanMX6 as a template with primer DL154:
(§1) WT and cys4Δ strains were grown overnight at 30° C. Unless otherwise specified, the strains were grown on synthetic defined medium (SD) containing 20 mg/L L-methionine, 20 mg/L L-histidine monohydrochloride monohydrate, 20 mg/L uracil and 30 mg/L L-leucine. Cysteine was added to a final concentration of 13 mg/L. Hcy was added at the indicated concentrations.
For spotting assays, strains were diluted to 6.25*10^7 cells/mL and then 5-fold serially diluted and spotted on the indicated plates. Plates were incubated at 30° C. for 2-3 days.
(§2) For OD600 measurements, strains were diluted to OD600 0.01. 200 μL of cells were platted on 96 wells plates and incubated at 30° C. for 30 hours with continuous shaking. OD600 was measured using Tecan™ SPARK 10M plate reader.
(§3) The percentage of growth analysis (FIG. 10F) represents the OD600 levels following 27 hours of growth in the plate reader. The percentage of growth represents the growth under the indicated conditions, with or without 0.3 mM TA, compared to the growth of WT without TA.

[7] = TEM of metabolite self-assembly; format: physicochemical; conditions: dissolved at 90° C., gradual cooling
Experimental: Hcy was dissolved at 90° C. in PBS at various concentrations followed by gradual cooling of the solution. […] Subsequently, 10 μL samples were placed on 400-mesh copper grids. After 2 min, excess fluids were removed. Samples were viewed using a JEOL 1200EX electron microscope operating at 80 kV.

HEK293 cells = experiment: MTT cell viability assay, HEK293 cells; format: cell-based; conditions: HEK293 non-neuronal cell line, 24 hours
Experimental: SH-SY5Y cells (ATCC CRL-2266) or HEK293 cells (ATCC® CRL-1573) were cultured (2×10^5 cells/mL) in DMEM/Nutrient Mixture F12 (Ham's; 1:1) supplemented with 10% fetal bovine serum (FBS) in 96-well tissue microplates (100 μL per well) and allowed to adhere overnight at 37° C. Half of each plate was plated with cells, with the other half later serving as a control containing solutions alone. […] For solutions containing polyphenols, Hcy (final concentration of 2 mg/mL) was similarly dissolved in cell media and mixed with EGCG or TA (final concentration of 0.1 mM and 0.01 mM, respectively, stock solution dissolved in cell medium) before gradual cooling. The medium was replaced and cells were treated with the solutions (100 μL per well), followed by overnight incubation at 37° C. Control cells were incubated with medium that was treated in the same manner (without Hcy). Controls of media supplemented with the inhibitors, without Hcy, were examined as well. Cell viability was evaluated using the 3-(4,5-dimethylthiazolyl-2)-2,5-diphenyltetrazolium bromide (MTT) assay. Briefly, 10 μL of 5 mg/mL MTT dissolved in PBS was added to each well. After a 4 hours incubation at 37° C. […] Finally, color intensity was measured using an ELISA reader at 570 nm. […]

cys4Δ yeast strain [8] = experiment: Aggregation level assay in yeast (ProteoStat, flow cytometry); format: cell-based, Saccharomyces cerevisiae; conditions: cys4Δ with 100 mg/L Hcy compared to WT and to mutant without Hcy
Experimental: For each sample, 2×10^6 cells/mL of logarithmic cells were resuspended with ProteoStat dye (Enzo Life Sciences). Cells were incubated for 15 min at room temperature protected from light. Flow cytometry was preformed using Stratedigm S1000EXi and the CellCapTure software (Stratedigm, San Jose, Calif.). Live cells were gated (P1) by forward scatter and side scatter. Fluorescence channels for FITC (530/30) and PE-Cy5 (676/29) were used utilizing a 488 nm laser source. A total of 50,000 events were acquired for each sample. Analyses were performed using the FlowJo software (TreeStar, version 14).

SH-SY5Y cells [9] = experiment: ProteoStat staining, confocal microscopy of treated SH-SY5Y cells; format: cell-based, human; conditions: Hcy assemblies 2 mg/mL, 4 hours
Experimental: SH-SY5Y cells: 2×10^5 cells/mL were cultured in DMEM/Nutrient Mixture F12 (Ham's; 1:1) supplemented with 10% FBS in 24-well plate on glass slides coated with 0.01% Poly-L-Lysine. When reaching ˜70-80% confluency, cells were treated with Hcy (2 mg/mL dissolved at 90° C. in cell media without FBS, followed by gradual cooling of the solution). After 4 hours of incubation, the cells were immediately supplemented with ProtesoStat dye diluted 1:250 in ProteoStat assay buffer followed by incubation for 15 min at room temperature protected from light. Cells were imaged using Leica TCS SP8 laser confocal microscope with ×63 1.4 NA or ×100 1.4 NA oil objectives. An argon laser with 488 excitation line was used for ProteoStat (emission wavelength, 500-600 nm).

WT yeast strain (BY4741) = experiment: Yeast growth assay, WT strain; format: cell-based, Saccharomyces cerevisiae; conditions: 0.3 mM TA, SD with 13 mg/L cysteine and 100 mg/L Hcy, 27 hours
Experimental: as §1, §2, §3

O=C(O[C@@H]1Cc2c(O)cc(O)cc2O[C@@H]1c1cc(O)c(O)c(O)c1)c1cc(O)c(O)c(O)c1 [EGCG, epigallocatechin gallate]
Structures seen by TEM in mixture of Hcy with polyphenol (Hcy fibrils [1]): no structures were formed
Inhibition of Hcy fibril formation, ThT fluorescence intensity over time (Hcy fibrils [2]): significant reduction in the ThT fluorescence intensity curves
Cell viability, inhibitors alone (MTT) (SH-SY5Y cells [3]; SH-SY5Y, 24 hours, EGCG 0.1 mM or TA 0.01 mM without Hcy): did not affect cell viability
Cell viability with inhibitor-containing Hcy solution compared to Hcy alone (MTT) (SH-SY5Y cells [3]; SH-SY5Y, 24 hours): significant increase in cell viability

NC(CCS)C(=O)O (centres unmarked) [Hcy, 2-Amino-4-sulfanylbutanoic acid]
Apoptotic activity (annexin V / PI) (SH-SY5Y cells [4]): stimulated apoptotic activity in a concentration-dependent manner
ThT fluorescence of self-assembly [5]: higher metabolite concentrations showing stronger ThT fluorescence
Cross-seeding of β-amyloid1-42 aggregation (ThT signal) (β-amyloid1-42): induced β-amyloid1-42 aggregation in a concentration-dependent manner
Growth sensitivity to Hcy supplied in the growth medium (cys4Δ yeast strain [6]; cys4Δ compared to WT, SD media with Hcy at different concentrations): sensitivity to Hcy supplied in the growth medium was observed
Formation of amyloid-like fibrils (TEM) [7]: formed amyloid-like fibrils
Cytotoxicity (MTT cell viability) (HEK293 cells): no significant toxicity
Cytotoxicity (MTT cell viability) (SH-SY5Y cells [3]): dose-dependent cytotoxicity
Cell death (MTT) (SH-SY5Y cells [3]; SH-SY5Y, 24-hour treatment with pre-formed Hcy assemblies in cell medium): up to 80%
Degree of aggregation upon Hcy feeding (ProteoStat flow cytometry) (cys4Δ yeast strain [8]): significantly higher degree of aggregation
Detection of amyloid-like structures in cells (ProteoStat) (SH-SY5Y cells [9]): amyloid-like structures in treated SH-SY5Y cells

O=C(OC[C@H]1O[C@@H](OC(=O)c2cc(O)c(O)c(OC(=O)c3cc(O)c(O)c(O)c3)c2)[C@H](OC(=O)c2cc(O)c(O)c(OC(=O)c3cc(O)c(O)c(O)c3)c2)[C@@H](OC(=O)c2cc(O)c(O)c(OC(=O)c3cc(O)c(O)c(O)c3)c2)[C@@H]1OC(=O)c1cc(O)c(O)c(OC(=O)c2cc(O)c(O)c(O)c2)c1)c1cc(O)c(O)c(OC(=O)c2cc(O)c(O)c(O)c2)c1 [TA, tannic acid]
Structures seen by TEM in mixture of Hcy with polyphenol (Hcy fibrils [1]): no structures were formed
Cell growth with TA (percentage of growth, OD600) (cys4Δ yeast strain [6]; cys4Δ, 0.3 mM TA, SD with 13 mg/L cysteine and 100 mg/L Hcy, 27 hours): significantly improved the cell growth
Cell growth with TA (percentage of growth, OD600) (WT yeast strain (BY4741)): no effect
Inhibition of Hcy fibril formation, ThT fluorescence intensity over time (Hcy fibrils [2]): significant reduction in the ThT fluorescence intensity curves
Cell viability with inhibitor-containing Hcy solution compared to Hcy alone (MTT) (SH-SY5Y cells [3]; SH-SY5Y, 24 hours): significant increase in cell viability

CSCC[C@H](N)C(=O)O [methionine]
Apoptotic activity (annexin V / PI) (SH-SY5Y cells [4]; SH-SY5Y, treated for 24 hours): did not show any apoptotic effect
ThT fluorescence of self-assembly [5]: did not show a fluorescence signal
Formation of amyloid-like fibrils (TEM) [7]: did not form amyloid-like fibrils
Cytotoxicity (MTT cell viability) (SH-SY5Y cells [3]; SH-SY5Y, 24-hour treatment, solutions prepared in cell medium): did not show any toxicity
